Broadly, the IC50 is the concentration that gives 50% inhibition.

For data set [1], the target named is T1, recombinant human p38α MAP kinase (Homo sapiens, UniProt Q16539).
T1 construct: purchased Upstate Biotechnology #14-251
In words: Study on p38α MAP kinase inhibitory activity (ATF2 phosphorylation, Alpha Screen). Format: biochemical. Particulars: biotinylated ATF2 substrate, 30° C. for 30 minutes. Here is the method:
Study on p38α MAP Kinase Inhibitory Activity
Using activating transcription factor-2 (hereinafter abbreviated to ATF2) which is a substrate for p38α MAP kinase, the inhibitory action of the compounds of the present invention was investigated on the phosphorylation by a recombinant human p38α MAP kinase.
A kinase buffer (25 mM Tris-HCl (pH 7.5), 5 mM β-glycerophosphate, 2 mM dithiothreitol, 0.1 mM Na3VO4, 10 mM MgCl2) containing a recombinant human p38α MAP kinase (Upstate Biotechnology #14-251) was added to a 384-well plate (5 μL) (6.25 ng protein/well) for fluorescence measurement. After addition of a kinase buffer (5 μL) containing the compound of the present invention, the resulting mixture was incubated at room temperature for 20 minutes. A substrate mixture (5 μL) of biotinylated ATF2 of 5 μg/mL (Upstate Biotechnology #14-432), adenosine triphosphate (90 μmol/L) (Sigma #FL-AAS) and anti-phosphorylated ATF2 antibody (20-fold dilution) (Cell Signaling Technology #9221L) prepared separately was added thereto, and enzyme reaction was carried out at 30° C. for 30 minutes. After the reaction, Hepes buffer (5 μL) containing 0.25% BSA and 100 mM EDTA was added to stop the enzyme reaction. The amount of a complex of the phosphorylated ATF2 and anti-phosphorylated ATF2 antibody produced by the reaction was measured using an Alpha Screen™ Rabbit Detection kit (Packard #6760607).
The p38α MAP kinase inhibitory activity, which is the effect of the compound of the present invention, was calculated as an inhibition rate (%) according to the following equation: Inhibition rate (%)={(AC−AX)/(AC−AB)}×100
wherein AB is a measured value without addition of the enzyme;
AC is a measured value with addition of the enzyme in the absence of a test compound; and
AX is a measured value with addition of the enzyme in the presence of a test compound.
(§1) Inhibition rate of compounds with each concentration was calculated, and a value indicating 50% inhibition (IC50) was determined from the inhibition curve.

Data set [2] deals with TNF-α production induced by lipopolysaccharide (LPS) in rats. In words: Rat cytokine-production model. Format: in vivo. Particulars: male SD rat, oral 0.3 mg/kg, LPS 10 μg/kg intravenously after 8 hours, plasma TNF-α ninety minutes after LPS; read-out: Inhibition rate (%) (Dose of compound: 0.3 mg/kg). The method, then: Rat Cytokine-Production Model
The in vivo effect of the compound of the present invention was studied on TNF-α production induced by lipopolysaccharide (LPS) in rats.
A vehicle containing the compound of the present invention was orally administered to male SD rat (Charles River Japan, Inc.), and after 8 hours, lipopolysaccharide (LPS, 055:B5, Difco) was intravenously administered at the dose of 10 μg/kg (5 animals/group). Only a vehicle was orally administered to a control group (5 animals). Ninety minutes after the LPS treatment, heparinized blood collection was performed via the abdominal vena cava under anesthesia with ether, and blood plasma was obtained by centrifugation (12,000 rpm, 3 minutes, 4° C.). The obtained blood plasma sample was stored at −80° C. until it was used. TNF-α in the blood plasma was measured using an ELISA kit from R&D System (#RTA00).
The inhibitory activity of the compound of the present invention against TNF-α production was calculated as an inhibition rate (%) according to the following equation: Inhibition rate (%)={(AC−AX)/AC}×100
wherein AC is a measured value in case where no test compound was administered under LPS induction, and
AX is a measured value in case where a test compound was administered under LPS induction.

Data set [3] can be described thus: Evaluation of artificial lipid membrane binding using a Biacore S51 system. Here is the method: Evaluation of Artificial Lipid Membrane Binding using a Biacore S51 (Registered Trademark) System
Using an aspirator, 10 mM of 1,2-dioleoyl-sn-glycero-3-phosphate monosodium salt (hereinafter abbreviated to DOPA) chloroform solution was evaporated to be dryness, and 0.6 mL of PBS/5% dimethyl sulfoxide (hereinafter abbreviated to DMSO) was added thereto. After carrying out thorough suspension by vortex, freezing and thawing were repeated for 5 times. Liposomes were prepared using a liposome preparation device (manufactured by Avestin Inc.) and two syringes and diluted to be 0.5 mM with PBS/5% DMSO just before the immobilization.
Each compound having a final concentration in PBS/5% DMSO of 50 μM was prepared by adding 38 μL of 1× PBS to 2 μL of 10 mM DMSO solution and further adding 360 μL of 1× PBS/5% DMSO and measured.
All of the following analyses were carried out using the Biacore S51 (registered trademark) system, and the measuring conditions were set up by Biacore S51 Control Software.
The measuring temperature was set to be 37° C., and PBS/5% DMSO (pH 7.4 or pH 6.0) was used as the buffer. Series S Sensor Chip L1 was used as the sensor chip. DOPA was immobilized on one of the measuring spots on the sensor surface, and the central spot was used as the reference.
Immobilization of the liposomes was carried out for about 3 minutes at a flow rate of 10 μL/minute, and then each compound was added thereto at a flow rate of 30 μL/minute to measure the interaction. The measuring conditions are as shown in the following.
Assay buffer: PBS/5% DMSO (pH 7.4 or pH 6.0)
Measuring temperature: 37° C.
Sensor chip: Series S Sensor Chip L1
Flow rate: 10 μL/minute at the time of liposome immobilization, 30 μL/minute at the time of interaction measurement
Regeneration: 20 mM CHAPS (3-[(3-cholamidopropyl)dimethylammonio]-1-propanesulfonate), an isopropanol/50 mM aqueous solution of sodium hydroxide=40/60 (volume ratio) mixed solution (60 seconds)
The data treatment was carried out in accordance with the method of Abdiche et al. (Analytical Biochemistry, 328, 233-243 (2004)) using Biacore S51 Evaluation Software.
After correcting infinitesimal error of the concentration of DMSO contained in the sample solution, the value of binding response (RU) obtained by subtracting the value of reference was divided by the sample molecular weight. Additionally, since the thus obtained value is proportional to the capturing amount of liposome, it was divided by the capturing amount at the time of the cycling and multiplied by 10^6 to be used as the correction value (correction value=1000000×RU (compound to be tested)/molecular weight (compound to be tested) RU (liposome)).
By adding propranolol, amiodarone, desipramine, imipramine and procaine as controls, it was confirmed that variation of the binding response is within about 10 to 15%.
Compounds having a binding response value after correction of 100 or more were judged positive.

Data set [4] has as its system TNF-α production stimulated by lipopolysaccharide (LPS) in THP-1. Nature of the data set: Inhibitory activity against TNF-α production using human cell lines (LPS-stimulated THP-1). The conditions noted are these: 1.5 h, THP-1 cells, LPS stimulation, 90 minutes at 37° C., TNF-α by ELISA. The format is cell-based. Here is the method:
Inhibitory Activity against TNF-α Production using Human Cell Lines
Using THP-1 which is a human monocytic cell line, the inhibitory effect of the compound of the present invention against TNF-α production stimulated by lipopolysaccharide (LPS) was studied.
Each 50 μL of lipopolysaccharide (LPS; 055:B5, Difco) prepared to a concentration of 40 ng/mL using RPMI-1640 medium containing 10% fetal calf serum (hereinafter abbreviated to RPMI-1640) and RPMI-1640 containing the compound of the present invention was added to a 96-well plate for cell culture. 100 μL of the cell suspension of THP-1 (Dainippon Pharmaceutical Co., Ltd, #06-202) prepared to a cell density of 2×10^6 cells/mL using RPMI-1640 was added and cultured for 90 minutes at 37° C. in an incubator (5% CO2, 95% air). After completion of the reaction, the culture medium supernatant was recovered and the amount of produced TNF-α was measured using an ELISA kit (Invitrogen, #850090192).
The inhibitory activity against TNF-α production, which is the effect of the compound of the present invention, was calculated as an inhibition rate (%) by the following equation: Inhibition rate (%)={(AC−AX)/(AC−AB)}×100
wherein AB is a measured value without LPS induction;
AC is a measured value with LPS induction in the absence of a test compound; and
AX is a measured value with LPS induction in the presence of a test compound.
as §1
(An ELISA detects its analyte on a solid surface through an enzyme-linked reagent.)

Data set [5] has as its system Chinese hamster lung cells (CHL/IU). Nature of the data set: Phospholipidosis detection system using a fluorescence labeling phospholipid analog (NBD-PE). Format: cell-based. The method, then: Study by a Phospholipidosis Detection System using a Fluorescence Labeling Phospholipid Analog Cell suspension (7×10^4 cells/ml) of Chinese hamster lung cells (CHL/IU) prepared using MEM (minimum essential medium) was added to a 96 well plate (96 well clear bottom plate) by 100 μL/necessary number of wells (2 wells for 1 dosage) and cultured for about 24 hours. After the culturing and subsequent removal of the supernatants on the 96 well plate, the compounds having respective concentrations prepared by dissolving or suspending in MEM medium containing 25 μmol/L of nitrobenzoxazole dipalmitoyl phosphatidyl ethanolamine (NBD-PE) (hereinafter abbreviated to NBD-PE medium) were added thereto by 100 μL/ well and treated for about 24 hours. Treating concentration of each compound was set to be 6.25, 12.5, 25, 50 or 100 μmol/L. […] In this connection, 5 wells of an untreated control (MEM medium alone) or an NBD-PE control (prepared by adding 1/100 volume of DMSO to the NBD-PE medium) were arranged for each compound and cultured in the same manner. After completion of the culturing and subsequent two times of washing with 100 μL/well of phosphate buffered saline (hereinafter abbreviated to PBS) (−), 100 μL of the MEM medium was added to all of the treated wells including two empty wells for the WST-1 background control and cultured for about 0.5 hour. Fluorescence intensity of each well was measured using a microplate reader (manufactured by Molecular Devices, SPECTRA max M2; excitation wavelength 485 nm/fluorescence wavelength 535 nm). Using average value of 2 wells for each dosage, the phospholipid increasing ratio (%) based on NBD-PE control was calculated using the following formula. Phospholipid accumulation increasing ratio (%)=100×(fluorescence intensity of substance to be tested−fluorescence intensity of untreated control)/(fluorescence intensity of NBD-PE control−fluorescence intensity of untreated control) (iii) Cytotoxicity Test The Pre value was calculated by measuring the 96 well plate which was measured in the measurement of phospholipid accumulation, using the microplate reader (manufactured by Molecular Devices, SPECTRA max M2) at a dominant wavelength of 450 nm and a correction wavelength of 690 nm. Premix WST-1 was added to the pre-measured 96 well plate by 5 μL/well. After 2 to 4 hours of culture, the Aft value was calculated by measuring in the same manner as in the Pre measurement. The background control value was subtracted from each of the measured values. Using the value obtained by subtracting the Pre value from the Aft value, the cell growth ratio (%) was calculated using the following formula.

T1 sequence (Q16539 whole entry): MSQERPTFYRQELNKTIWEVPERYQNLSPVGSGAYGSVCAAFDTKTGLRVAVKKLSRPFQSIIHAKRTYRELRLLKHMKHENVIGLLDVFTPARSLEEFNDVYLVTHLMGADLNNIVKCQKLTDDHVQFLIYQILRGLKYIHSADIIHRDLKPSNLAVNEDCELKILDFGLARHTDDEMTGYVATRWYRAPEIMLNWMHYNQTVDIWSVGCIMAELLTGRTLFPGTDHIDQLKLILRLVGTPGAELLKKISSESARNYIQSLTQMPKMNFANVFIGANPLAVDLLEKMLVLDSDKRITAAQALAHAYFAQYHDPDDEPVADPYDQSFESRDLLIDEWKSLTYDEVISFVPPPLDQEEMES

Regarding `CC(C)(O)c1nc(-c2ccc(F)cc2F)c(-c2ccc(=O)n(-c3c(F)cccc3F)c2)o1` [Compound 89 (b), 1-(2,6-difluorophenyl)-5-[4-(2,4-difluorophenyl)-2-(1-hydroxy-1-methylethyl)-1,3-oxazol-5-yl]-2(1H)-pyridinone], the IC50 in data set [1] was 1.7 nM; in data set [4], 0.7 nM. In data set [2], the inhibition at 0.3 mg/kg was determined as 82%. For the same compound, the “Binding Level (RU)” value in data set [3] (compound 50 μM, DOPA liposomes on Sensor Chip L1, 37° C., PBS/5% DMSO (pH 7.4 or pH 6.0)) is reported as 15.5 RU. The Judgment result in data set [3] (phospholipidosis inducing activity judged from artificial lipid membrane binding) is given as “Negative”.

For `C[C@](O)(CO)c1nc(-c2ccc(F)cc2F)c(-c2ccc(=O)n(-c3c(F)cccc3F)c2)o1` [Example 210, 1-(2,6-difluorophenyl)-5-{4-(2,4-difluorophenyl)-2-[(1S)-1,2-dihydroxy-1-methylethyl]-1,3-oxazol-5-yl}-2(1H)-pyridinone], the IC50 in data set [1] amounted to 5.8 nM; in data set [4], 0.7 nM. In data set [5] (compound 100 uM, about 24 hours with NBD-PE), the “Pospholipid accumulation increasing ratio (% of 30 uM amiodarone) (Dose of compound: 100 uM)” value is reported as 8 % of 30 uM amiodarone. Also, the Judgment result in data set [5] (phospholipidosis inducing activity, NBD-PE) is given as “Negative”. The inhibition at 0.3 mg/kg in data set [2] came out at 49%.

Turning to `Cc1cc(Cl)cc(C)c1-n1cc(-c2nc(C(C)(CO)CO)oc2-c2ccc(F)cc2F)ccc1=O` [Compound 6a, 1-(4-chloro-2,6-dimethylphenyl)-5-{5-(2,4-difluorophenyl)-2-[2-hydroxy-1-(hydroxymethyl)-1-methylethyl]-1,3-oxazol-4-yl}-2(1H)-pyridinone], the IC50 in data set [1] came out at 12 nM; in data set [4], 2.6 nM.
